# Results published in US10428044B2, “3-amino-1,5,6,7-tetrahydro-4H-indol-4-ones” (Bayer Pharma Aktiengesellschaft, priority 2014, dated 2019).
# Target: (recombinant) catalytic domain of human Bub1 (amino acids 704-1085) (Homo sapiens (Human), UniProt O43683)
# Experiment: Bub1 kinase assay (TR-FRET)
# Assay type: biochemical
# Conditions: ATP 10 μM final, peptide substrate 1 μM final, 60 min at 22° C., read-out: Biological Assay: Bub1 kinase assay median IC50
# Method in brief: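 Readout was TR-FRET between a Eu-labeled antibody complex recognizing phosphoserine and streptavidin-XL665 on the biotinylated peptide, after EDTA stop and 1 h at 22° C. The kinase reaction ran for 60 min at 22° C. Values are means or medians of repeat tests, from 4-parameter fits normalized to enzyme-free and inhibitor-free controls.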
# (recombinant) catalytic domain of human Bub1 (amino acids 704-1085), sequence (O43683 704-1085): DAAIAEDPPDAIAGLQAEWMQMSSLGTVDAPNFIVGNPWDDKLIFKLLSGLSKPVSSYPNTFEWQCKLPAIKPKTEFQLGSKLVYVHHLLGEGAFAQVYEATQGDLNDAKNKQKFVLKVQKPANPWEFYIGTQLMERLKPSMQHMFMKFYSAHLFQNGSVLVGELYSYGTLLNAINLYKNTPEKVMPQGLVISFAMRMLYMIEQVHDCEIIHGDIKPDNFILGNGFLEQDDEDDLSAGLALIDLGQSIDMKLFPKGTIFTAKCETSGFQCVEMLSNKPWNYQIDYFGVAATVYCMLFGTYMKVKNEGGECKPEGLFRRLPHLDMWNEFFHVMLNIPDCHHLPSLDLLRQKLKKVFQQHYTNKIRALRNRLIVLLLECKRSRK
row,Compound,IC50 [nM]
1,"CN(C)c1ccc(Nc2c(-c3ccncc3)[nH]c3c2C(=O)CC(C)(C)C3)cc1 [Example 435, 3-{[4-(dimethylamino)phenyl]amino}-6,6-dimethyl-2-(pyridin-4-yl)-1,5,6,7-tetrahydro-4H-indol-4-one]",1380
2,"COC(=O)C[n+]1ccc(-c2[nH]c3c(c2Nc2ccccc2)C(=O)CC(C)(C)C3)cc1 [Example 193, 4-[6,6-dimethyl-4-oxo-3-(phenylamino)-4,5,6,7-tetrahydro-1H-indol-2-yl]-1-(2-methoxy-2-oxoethyl)pyridinium bromide]",921
3,"Cc1ccc(Nc2c(-c3ccncc3)[nH]c3c2C(=O)CC(C)(C)C3)c(CO)c1 [Example 482, 3-{[2-(hydroxymethyl)-4-methylphenyl]amino}-6,6-dimethyl-2-(pyridin-4-yl)-1,5,6,7-tetrahydro-4H-indol-4-one]",12.2
4,"O=C1CCCc2[nH]c(-c3ccncc3)c(Nc3ccccn3)c21 [Example 503, 2-(pyridin-4-yl)-3-(pyridin-2-ylamino)-1,5,6,7-tetrahydro-4H-indol-4-one]",36.1
5,"CC1(C)CC(=O)c2c([nH]c(-c3ccncc3)c2Nc2cc(Cl)ccc2Cl)C1 [Example 78, 3-[(2,5-dichlorophenyl)amino]-6,6-dimethyl-2-(pyridin-4-yl)-1,5,6,7-tetrahydro-4H-indol-4-one]",6950
6,"O=C1CCCc2[nH]c(-c3ccnc(NC(=O)C4(F)CC4)c3)c(Nc3ccccc3)c21 [Example 261, 1-fluoro-N-{4-[4-oxo-3-(phenylamino)-4,5,6,7-tetrahydro-1H-indol-2-yl]pyridin-2-yl}cyclopropanecarboxamide]",41.7
7,"O=C1CCCc2[nH]c(-c3ccnc(Nc4cccc(F)c4)c3)c(Nc3ccccc3)c21 [Example 375, 2-{2-[(3-fluorophenyl)amino]pyridin-4-yl}-3-(phenylamino)-1,5,6,7-tetrahydro-4H-indol-4-one]",330
8,"CC1(C)CC(=O)c2c([nH]c(-c3ccnc(Cl)c3F)c2Nc2ccccc2)C1 [Example 219, 2-(2-chloro-3-fluoropyridin-4-yl)-6,6-dimethyl-3-(phenylamino)-1,5,6,7-tetrahydro-4H-indol-4-one]",12.2
9,"CC1(C)CC(=O)c2c([nH]c(-c3ccnc(NCC(F)(F)F)c3)c2Nc2ccccc2)C1 [Example 361, 6,6-dimethyl-3-(phenylamino)-2-{2-[(2,2,2-trifluoroethyl)amino]pyridin-4-yl}-1,5,6,7-tetrahydro-4H-indol-4-one]",600
10,"CC1(C)CC(=O)c2c([nH]c(-c3ccncc3)c2Nc2ccc3ccccc3c2)C1 [Example 158, 6,6-dimethyl-3-(naphthalen-2-ylamino)-2-(pyridin-4-yl)-1,5,6,7-tetrahydro-4H-indol-4-one]",95.6
11,"Cc1cc(COCC(=O)Nc2cc(-c3[nH]c4c(c3Nc3ccccc3)C(=O)CCC4)ccn2)on1 [Example 350, 2-[(3-methyl-1,2-oxazol-5-yl)methoxy]-N-{4-[4-oxo-3-(phenylamino)-4,5,6,7-tetrahydro-1H-indol-2-yl]pyridin-2-yl}acetamide]",6.53
12,"CC1(C)CC(=O)c2c([nH]c(-c3ccncc3Cl)c2Nc2ccccc2)C1 [Example 2, 2-(3-chloropyridin-4-yl)-6,6-dimethyl-3-(phenylamino)-1,5,6,7-tetrahydro-4H-indol-4-one]",8.98
13,"CC(C)CC1CC(=O)c2c([nH]c(-c3ccncc3)c2Nc2ccccc2)C1 (centres unmarked) [Example 29, 6-(2-methylpropyl)-3-(phenylamino)-2-(pyridin-4-yl)-1,5,6,7-tetrahydro-4H-indol-4-one]",6.17
14,"CC(=O)Nc1cc(-c2[nH]c3c(c2Nc2ccc(F)c(F)c2)C(=O)CC(C(C)C)C3)ccn1 (centres unmarked) [Example 323, N-{4-[3-[(3,4-difluorophenyl)amino]-4-oxo-6-(propan-2-yl)-4,5,6,7-tetrahydro-1H-indol-2-yl]pyridin-2-yl}acetamide]",21.6
15,"O=C(COCc1ccccc1)Nc1cc(-c2[nH]c3c(c2Nc2ccccc2)C(=O)CCC3)ccn1 [Example 340, 2-(benzyloxy)-N-{4-[4-oxo-3-(phenylamino)-4,5,6,7-tetrahydro-1H-indol-2-yl]pyridin-2-yl}acetamide]",7.25
16,"COC(=O)CCn1c2c(c(Nc3ccccc3)c1-c1ccncc1)C(=O)CCC2 [Example 172, methyl 3-[4-oxo-3-(phenylamino)-2-(pyridin-4-yl)-4,5,6,7-tetrahydro-1H-indol-1-yl]propanoate]",1050
17,"CC1(C)CC(=O)c2c([nH]c(-c3ccncc3)c2Nc2cc(-c3ccccc3)ccn2)C1 [Example 422, 6,6-dimethyl-3-[(4-phenylpyridin-2-yl)amino]-2-(pyridin-4-yl)-1,5,6,7-tetrahydro-4H-indol-4-one]",330

# More lines, in order of falling IC50, values ahead:
row,IC50 [nM],Compound
1,475,"CNCCC(=O)Nc1cc(-c2[nH]c3c(c2Nc2ccccc2)C(=O)CCC3)ccn1 [Example 300, N^2-methyl-N-{4-[4-oxo-3-(phenylamino)-4,5,6,7-tetrahydro-1H-indol-2-yl]pyridin-2-yl}-beta-alaninamide]"
2,47.4,"CSc1cnccc1-c1[nH]c2c(c1Nc1ccccc1)C(=O)CC(C)(C)C2 [Example 201, 6,6-dimethyl-2-[3-(methylsulfanyl)pyridin-4-yl]-3-(phenylamino)-1,5,6,7-tetrahydro-4H-indol-4-one]"
3,28.5,"CC(C)C1CC(=O)c2c([nH]c(-c3ccnc(N)c3)c2Nc2ccc(F)c(F)c2)C1 (centres unmarked) [Example 222, 2-(2-aminopyridin-4-yl)-3-[(3,4-difluorophenyl)amino]-6-(propan-2-yl)-1,5,6,7-tetrahydro-4H-indol-4-one]"
4,24.9,"CC1(C)CC(=O)c2c([nH]c(-c3ccncc3)c2Nc2cccc(-c3cccs3)c2)C1 [Example 420, 6,6-dimethyl-2-(pyridin-4-yl)-3-{[3-(thiophen-2-yl)phenyl]amino}-1,5,6,7-tetrahydro-4H-indol-4-one]"
5,23.3,"O=C1CCCc2[nH]c(-c3ccnc(NC(=O)[C@H]4C[C@H]4F)c3)c(Nc3ccccc3)c21 [Example 253, (1R,2R)-2-fluoro-N-{4-[4-oxo-3-(phenylamino)-4,5,6,7-tetrahydro-1H-indol-2-yl]pyridin-2-yl}cyclopropanecarboxamide]"
6,9.72,"O=C(Nc1cc(-c2[nH]c3c(c2Nc2ccccc2)C(=O)CCC3)ccn1)c1cnco1 [Example 282, N-{4-[4-oxo-3-(phenylamino)-4,5,6,7-tetrahydro-1H-indol-2-yl]pyridin-2-yl}-1,3-oxazole-5-carboxamide]"
7,9.17,"O=C1CC2(CC2)Cc2[nH]c(-c3ccnc(NC(=O)C4CC4)c3)c(Nc3ccccc3)c21 [Example 294, N-{4-[4′-oxo-3′-(phenylamino)-1′,4′,5′,7′-tetrahydrospiro[cyclopropane-1,6′-indol]-2′-yl]pyridin-2-yl}cyclopropanecarboxamide]"
8,5.09,"COc1ccc(Cn2cc(C(=O)Nc3cc(-c4[nH]c5c(c4Nc4ccccc4)C(=O)CC(C)(C)C5)ccn3)cn2)cc1 [Example 479, N-{4-[6,6-dimethyl-4-oxo-3-(phenylamino)-4,5,6,7-tetrahydro-1H-indol-2-yl]pyridin-2-yl}-1-(4-methoxybenzyl)-1H-pyrazole-4-carboxamide]"
9,4.23,"CC1(C)CC(=O)c2c([nH]c(-c3ccnc(NC(=O)c4cnn(Cc5ccccc5)c4)c3)c2Nc2ccccc2)C1 [Example 478, 1-benzyl-N-{4-[6,6-dimethyl-4-oxo-3-(phenylamino)-4,5,6,7-tetrahydro-1H-indol-2-yl]pyridin-2-yl}-1H-pyrazole-4-carboxamide]"
